# In publication PMC9400670, “Establishing the selective phospholipid membrane coordination, permeation and lysis properties for a series of ‘druggable’ supramolecular self-associating antimicrobial amphiphiles” (Chemical Science, 2022):
# Where two headings read alike, the source gives them in different places.
# Experiments:
# MRSA USA300 [1] = conditions: n = 3, 0.5 McFarland standard, after 900 min, number in bracket = efficacy rank; cited from earlier work
# MRSA USA300 [2] = assay: MIC50 determination and initial screening from OD600 growth curves, MRSA USA300; format: cell-based, Staphylococcus aureus
# Text: The antimicrobial activity of SSAs 1–14 was established against both a model Gram-positive, clinically relevant methicillin resistant Staphylococcus aureus (MRSA), and a model Gram-negative, E. coli bacteria, Table 1. Here MIC50 values are given in mM to enable the derivation of molecular structure: antimicrobial efficacy: physical property relationships. […]
# Data were acquired in endpoint mode. […]
# Section 3: Microbial Methods
# These methods were taken directly from UK Health and Security Office (UKHSA) standard operating […]
# Preparation of Luria Broth media (LB): Yeast extract (5 g), tryptone (10 g) and sodium chloride (10 g) were dissolved in dH₂O (1 L) then divided into bottles and autoclaved.
# Preparation of Luria Broth (LB) agar plates: Agar (6 g) was added to LB (400 mL) and autoclaved. Once cool, the LB agar was poured into sterile petri dishes under sterile conditions and allowed to set. LB plates were stored at 4 °C until use.
# Preparation of bacterial plates: Sterile LB agar plates were streaked using Escherichia coli DH10B or USA300 Methicillin-Resistant Staphylococcus aureus then incubated at 37 °C overnight.
# Preparation of Inoculum: An initial culture was made up by inoculating LB media (5 mL) with a single colony of bacteria under sterile conditions and incubated at 37 °C with shaking overnight. The following day, overnight bacterial cultures were subcultured into fresh LB medium to a starting OD600 […]
# Preparation of 96 well microplate for screening: 20 mM solutions of each compound to be tested were made up using 5 % ethanol. The 1:100 cell suspension (150 µL) was pipetted into the wells and SSA compound solutions (30 µL) were added into each well. The final screening concentration for each compound was 3.3 mM in the well. These were incubated for 20 hours in a plate reader, with optical density readings being taken at 600 nm every 15 minutes. Optical density readings were plotted against time to produce growth curves. […]
# individual wells under sterile conditions. Compounds (30 µL) were added to the wells to equal a total volume of 180 µL in the wells. Six repeats of each concentration for each compound were created each plate. The plates were sealed using parafilm, then incubated at 37°C in a microplate reader for 18-25 hours. Optical density readings were taken at 600 nm every 15 min. Data was used to generate […]
# Calculation of MIC50: Growth curves were plotted using OD600 optical density readings in Microsoft ® Excel ® 2013. OD600 optical density readings 900 minutes from the start of each of these growth cultures for each concentration of compound were plotted in Origin ® 2015. The resultant curve was normalized and fitted using the Boltzmann fit to define the MIC50 values for each compound.
# [3] = Caco-2 permeability assay; format: in vitro ADME, human; conditions: human; for recovery at 120 min, 10 µM: Caco-2, % SSA recovered from the assay after 2 hours; for Papp B→A at 120 min, 10 µM: Caco-2, Caco-2
# Method: Section 4: DMPK Methods and Further Discussion […]
# Caco-2 Permeability studies: The permeability assay for SSA 1-6 and 10 was performed at Cyprotex Discovery Limited (Macclesfield, UK) and analysed at Cancer Research Horizons. SSA 1-6 and 10 were incubated at a final concentration of 10 uM with human intestinal Caco-2 cells at 37°C, 5% CO2 with a relative humidity of 95%. After 120 minutes the apical compartment inserts and the companion plates were separated, and the apical and basolateral samples were transferred. Incubations were conducted in duplicate and the fluorescent membrane integrity marker; Lucifer Yellow was co-incubated with the SSA compounds at the start of the assay. Compounds of known permeability were used as controls and were within acceptance criteria. Further processing is described in:
# Sample preparation and liquid chromatography-mass spectrometry analysis.
# Sample preparation and liquid chromatography-mass spectrometry analysis: All samples were centrifuged at 3500 rpm at 4°C for 10 min to precipitate protein and enable sampling of supernatant prior to appropriate dilution for liquid chromatography-mass spectrometry (LC-MS/MS analysis). […]
# (1.5 µm, 50 x 2.1 mm) at a temperature of 40°C and a binary mobile phase gradient at a flow rate of […]
# 0.4 mL/min. […]
# For the purpose of apparent permeability determination, samples were analysed using a Waters I-Class ultra-high-performance liquid chromatography (UHPLC) system coupled to a Waters Vion mass spectrometer (Waters, Elstree, UK). Separation of analytes was achieved used an Accucore Vanquish C18+ column (1.5 µm, 50 x 2.1 mm) at a temperature of 40°C and a binary mobile phase gradient at a flow rate of 0.4 mL/min. Initial LC conditions for SSA 1-4 comprised 66% solvent A (0.1% formic acid + 5 mM ammonium acetate in water), 33% solvent B (0.1% formic acid + 5 mM ammonium acetate in methanol); this was ramped to 63% B at 1.8 min and 95% B at 1.9 min, held for 0.5 min and then immediately returned to initial conditions and held for the remaining 0.5 min of the method. Initial LC conditions for SSA 5-10 comprised 54% solvent A (0.1% formic acid + 5 mM ammonium acetate in water), 46% solvent B (0.1% formic acid + 5 mM ammonium acetate in methanol); this was ramped to 67% B at 1.8 min and 95% B at 1.9 min, held for 0.5 min and then immediately returned to initial conditions and held for the remaining 0.5 min of the method.
# Sample analysis was by electrospray ionisation in negative ion mode. The capillary voltage was 2.5 kV, desolvation gas was 600°C.
# For the purpose of PK determination of SSA 5, samples were analysed using a Waters I-Class ultra-high-performance liquid chromatography (UHPLC) system coupled to a Waters Xevo TQ-XS mass spectrometer. Separation of analytes was achieved using an Accucore Vanquish C18+ column (1.5 µm, 50 x 2.1 mm) at a temperature of 40°C and a binary mobile phase gradient at a flow rate of 0.4 mL/min. Initial LC conditions comprised 54% solvent A (0.1% formic acid + 5 mM ammonium acetate in water), 46% solvent B (0.1% formic acid + 5 mM ammonium acetate in methanol); this was ramped to 67% B at 1.8 min and 95% B at 1.9 min, held for 0.5 min and then immediately returned to initial conditions and held for the remaining 0.5 min of the method. Sample analysis was by electrospray ionisation combined with multiple reaction monitoring in negative ion mode. The […]
# Mean blood concentration-time profile: Within these studies SSAs 3 and 5 were dosed at 1 mg/kg, to female CD-1 mice (n=9 per SSA) via an intravenous tail vein bolus dose formulation as solutions in 2 % DMSO/98 % water. Blood taken from the mouse tail vein was extracted by protein precipitation.
# SSA concentrations were calculated through UPLC-MS/MS techniques, with tolbutamide as the internal standard. The assay met the acceptance criteria with >7 calibration standards within ± 20% of nominal concentration. The lower limit of quantitation was 2 ng/mL for both compounds. PK […]
# [4] = Staphylococcus aureus, 15 h, Table S3, conversion of the mM values of Table 1, MRSA USA300, after 900 mins
# [5] = 10 uM, 120 minutes, n = 2 technical repeats, read-out: Papp (B-A)
# [6] = in words, read-out: Papp (B-A) class
# [7] = Staphylococcus aureus, 15 h, MRSA USA300, n = 3, 0.5 McFarland standard, after 900 min, number in bracket = efficacy rank, SSA 11 estimated due to data quality
Compound,MIC50 MRSA (MRSA USA300 [1]),MIC50 (MRSA USA300 [2]; [4]) [µg/mL],"recovery at 120 min, 10 µM ([3]; read-out: Recovery (A-B)) [%]","recovery at 120 min, 10 µM ([3]; read-out: Recovery (B-A)) [%]","Papp B→A at 120 min, 10 µM [3, 5] [×10⁻⁶ cm/s]","MIC50 MRSA (MRSA USA300 [2]; Table S3, conversion of the mM values of Table 1, MRSA USA300, after 900 mins) [µg/mL]","Papp B→A at 120 min, 10 µM [3, 6] [×10⁻⁶ cm/s]","inhibition at 3300 µM (MRSA USA300 [2]; Staphylococcus aureus, 15 h, 3.3 mM, after 900 min, read-out: initial antimicrobial screening, inhibition of growth, MRSA) [%]","initial antimicrobial screening outcome, MRSA (MRSA USA300 [2]; Table S3, screening at 3.3 mM)",MIC50 (MRSA USA300 [2]; [7]) [µM]
O=C(NCS(=O)(=O)O)Nc1ccc(C(F)(F)F)cc1 [SSA 1],0.46(2) mM,248,93,101,5.4,,,,,
O=C(NCCCS(=O)(=O)O)Nc1ccc(C(F)(F)F)cc1 [SSA 2],,,97,102,1.7,,,,,
O=C(NCS(=O)(=O)O)Nc1ccc(C(F)(F)F)cc1 [SSA 3],0.35(1) mM,,,,,132,,,,
O=C(O)CNC(=O)Nc1ccc(C(F)(F)F)cc1 [SSA 4],1.14(6) mM,574,93,96,2.3,,,,,
O=C(NCS(=O)(=O)O)Nc1ccccc1-c1nc2ccccc2s1 [SSA 5],0.99(5) mM,599,79,107,21,,> 10,,,
Cc1ccc2nc(-c3ccc(NC(=O)NCS(=O)(=O)O)cc3)sc2c1 [SSA 6],0.93(4) mM,576,59,86,11,,> 10,,,
Cc1ccc2nc(NC(=O)NCS(=O)(=O)O)sc2c1 [SSA 7],,,,,,,,< 10,Fail,
O=C(NCS(=O)(=O)O)Nc1ccc(-c2nc3ccccc3s2)cc1 [SSA 8],,696,,,,,,,,1150
Cc1ccc2nc(-c3ccc(NC(=O)NCCC(=O)O)cc3)sc2c1 [SSA 9],,760,,,,,,,,1200
Cc1ccc2nc(-c3ccc(NC(=O)NCCCS(=O)(=O)O)cc3)sc2c1 [SSA 10],,382,54,95,6.7,,,,,590
Cc1ccc2nc(-c3ccc(NC(=O)NCC(=O)O)cc3)sc2c1 [SSA 11],,181 to 367,,,,,,,,310 to 630
